What follows are compounds tested against T1, G protein-activated inward rectifier potassium channel 1 (Rattus norvegicus, UniProt P63251) (assay: alpha2C agonist potency with rauwolscine blockade, dose response, mechanism study for alpha2C adrenergic receptor project, cell-based, thallium flux (AID 435016)). Conditions: inactive by the depositor's call.
T1 sequence (P63251 whole entry): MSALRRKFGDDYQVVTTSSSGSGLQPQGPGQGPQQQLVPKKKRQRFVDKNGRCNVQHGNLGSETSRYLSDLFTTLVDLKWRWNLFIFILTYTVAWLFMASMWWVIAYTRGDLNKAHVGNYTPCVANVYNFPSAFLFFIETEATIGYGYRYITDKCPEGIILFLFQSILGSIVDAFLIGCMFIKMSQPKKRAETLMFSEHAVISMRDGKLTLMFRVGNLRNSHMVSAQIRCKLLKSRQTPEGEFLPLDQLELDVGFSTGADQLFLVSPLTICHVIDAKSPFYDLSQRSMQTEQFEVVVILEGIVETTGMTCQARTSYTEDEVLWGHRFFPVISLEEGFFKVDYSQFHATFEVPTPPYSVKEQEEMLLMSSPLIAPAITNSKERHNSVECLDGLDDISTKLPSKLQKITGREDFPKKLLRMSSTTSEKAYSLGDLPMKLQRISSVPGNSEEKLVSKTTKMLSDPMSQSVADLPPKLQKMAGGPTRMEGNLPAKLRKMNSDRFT

EC50 | SMILES
41.4 µM | CCOC(=O)c1ccc(NC(=O)NC(C)C2CCCO2)cc1 (stereo not drawn)
12.6 µM | O=c1c(-c2ccc3c(c2)OCCO3)c(C(F)(F)F)oc2cc(O)cc(O)c12 [3-(2,3-dihydro-1,4-benzodioxin-6-yl)-5,7-bis(oxidanyl)-2-(trifluoromethyl)chromen-4-one]
2.29 µM | CCSc1nnc(NC(=O)NC(CC)(C(F)(F)F)C(F)(F)F)s1 [1-(5-ethylsulfanyl-1,3,4-thiadiazol-2-yl)-3-[1,1,1-trifluoro-2-(trifluoromethyl)butan-2-yl]urea]

Reference: BindingDB's records for doi:10.7270/Q2WQ028B (Vanderbilt Screening Center For Gpcrs, Ion Channels and …, 2010)
